Assay results published in publication PMC9721424, “Novel N-methylsulfonyl-indole derivatives: biological activity and COX-2/5-LOX inhibitory effect with improved gastro protective profile and reduced cardio vascular risks” (Journal of Enzyme Inhibition and Medicinal Chemistry, 2022).
Values joined by “and” are separate entries in the source; they are usually repeats but may differ in a detail not shown here. Identical values can stand only once. Like-named read-outs stand apart in the source and are kept apart here.

What was measured:
DPPH free radical assay = type: biochemical; details: 540 nm, relative to Trolox; for DPPH test results (µM trolox equivalent/ 1mg sample ± SD): 30 min; for DPPH anti-oxidant activity: values in text
Experimental: Preparation of samples was occurred at the following concentrations: Samples 3a, 4a, 5b, 5d and 5e at final concentrations of 0.5 mg/ml in methanol: DMSO 9:1 v/v. Samples 4b and 4d at final concentrations 0.025 mg/ml in methanol: DMSO 9:1 v/v, sample 5a at final concentrations 0.25 mg/ml in methanol: DMSO 9:1 v/v, Sample 4c, 5c and 4e at final concentrations 0.05 mg/ml in methanol: DMSO 9:1 v/v, sample 3b at final concentration 0.75 mg/ml methanol: DMSO 9:1 v/v. A stock solution of 100 µM concentration of Trolox, a standard used in this experiment, was prepared in methanol from which seven concentrations were prepared, including 50, 40, 30, 20, 15, 10 and 5 µM.
The DPPH (2,2-diphenyl-1-picryl-hydrazyl-hydrate) free radical assay was carried out according to the method of Boly et al. 2016[39]. Briefly, freshly prepared DPPH reagent (100 µl, 0.1% in methanol) was added to 100 µl of the sample on 96 well plates (n = 6). The reaction was incubated at room temp for 30 min in the dark. After completion of the incubation time, the reduction in DPPH colour intensity was measured at 540 nm. Data obtained was represented as means ± SD, according to the following equation, percentage inhibition = [(Average absorbance of blank – average absorbance of the test)/(Average absorbance of blank)] *100. The results were recorded using a microplate reader, FluoStar Omega.
Microsoft Excel® was used to analyse the obtained results. The IC50 values were calculated using Graph pad Prism 6® by converting the concentrations to their logarithmic value and selecting the non-linear inhibitor regression equation (log (inhibitor) vs. normalised response – variable slope equation). The methods used and the final test report (R-SO7320) were obtained from Nawah Scientific.

COX-2 = biological target: T1, COX-2 (Ovis aries, UniProt P79208); test: COX-2 inhibition, enzyme immune assay (EIA) kit; type: biochemical, ovine; details: for S.I (IC50 COX-1/IC50 COX-2): COX-2 selectivity index; for SI: lab report, COX1/COX2
T1 sequence (P79208 17-603): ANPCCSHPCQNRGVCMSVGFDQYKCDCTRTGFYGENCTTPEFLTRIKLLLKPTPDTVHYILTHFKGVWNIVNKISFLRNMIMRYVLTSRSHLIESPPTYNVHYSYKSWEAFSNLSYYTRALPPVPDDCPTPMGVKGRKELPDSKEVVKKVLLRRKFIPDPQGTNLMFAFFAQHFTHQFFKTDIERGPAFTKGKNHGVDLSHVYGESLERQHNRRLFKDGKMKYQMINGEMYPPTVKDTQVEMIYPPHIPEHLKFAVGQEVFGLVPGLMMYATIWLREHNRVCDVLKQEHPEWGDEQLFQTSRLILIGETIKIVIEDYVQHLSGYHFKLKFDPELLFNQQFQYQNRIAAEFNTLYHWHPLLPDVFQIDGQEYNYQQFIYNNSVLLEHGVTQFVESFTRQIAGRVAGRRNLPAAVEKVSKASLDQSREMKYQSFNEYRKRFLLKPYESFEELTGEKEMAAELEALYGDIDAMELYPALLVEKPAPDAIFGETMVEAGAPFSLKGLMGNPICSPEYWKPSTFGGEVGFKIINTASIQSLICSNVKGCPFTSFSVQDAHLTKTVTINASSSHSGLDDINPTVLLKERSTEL

5-LOX enzyme = biological target: T2, 5-LOX enzyme (Homo sapiens, UniProt P09917); test: 5-LOX inhibition, Human Lipoxygenase Inhibitor Screening Assay (EIA) kit; type: biochemical
T2 construct: purchased Cayman Chemical K980-100
T2 sequence (P09917 1-674): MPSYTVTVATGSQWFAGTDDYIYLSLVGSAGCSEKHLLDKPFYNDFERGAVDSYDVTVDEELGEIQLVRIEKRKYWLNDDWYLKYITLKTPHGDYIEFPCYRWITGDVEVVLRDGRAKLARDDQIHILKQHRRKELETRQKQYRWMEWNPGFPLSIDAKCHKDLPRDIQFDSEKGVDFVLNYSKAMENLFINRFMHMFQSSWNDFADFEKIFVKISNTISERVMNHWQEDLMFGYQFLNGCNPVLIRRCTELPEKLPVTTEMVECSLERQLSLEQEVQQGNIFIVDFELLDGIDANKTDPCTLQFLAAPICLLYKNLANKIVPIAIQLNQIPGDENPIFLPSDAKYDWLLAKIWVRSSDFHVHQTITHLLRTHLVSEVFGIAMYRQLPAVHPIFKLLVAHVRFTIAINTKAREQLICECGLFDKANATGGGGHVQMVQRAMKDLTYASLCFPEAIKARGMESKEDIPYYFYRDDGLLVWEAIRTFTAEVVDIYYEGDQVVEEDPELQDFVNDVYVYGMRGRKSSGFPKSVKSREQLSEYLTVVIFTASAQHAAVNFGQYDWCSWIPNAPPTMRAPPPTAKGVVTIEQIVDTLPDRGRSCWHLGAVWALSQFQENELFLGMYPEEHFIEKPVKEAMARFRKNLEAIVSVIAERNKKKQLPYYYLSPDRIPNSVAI
Experimental: The ability of the test compounds to inhibit the 5-LOX enzyme (IC50 value, μM) was detected using the Cayman Human Lipoxygenase Inhibitor Screening Assay (EIA) kit (catalog no. K980-100, Cayman Chemical). The IC50 values of test compounds were measured in µM according to the manufacturer’s instructions and reported method.

ovine COX-1 = biological target: T3, ovine COX-1 (Ovis aries, UniProt P05979); test: COX-1 inhibition, enzyme immune assay (EIA) kit
T3 sequence (P05979 25-600): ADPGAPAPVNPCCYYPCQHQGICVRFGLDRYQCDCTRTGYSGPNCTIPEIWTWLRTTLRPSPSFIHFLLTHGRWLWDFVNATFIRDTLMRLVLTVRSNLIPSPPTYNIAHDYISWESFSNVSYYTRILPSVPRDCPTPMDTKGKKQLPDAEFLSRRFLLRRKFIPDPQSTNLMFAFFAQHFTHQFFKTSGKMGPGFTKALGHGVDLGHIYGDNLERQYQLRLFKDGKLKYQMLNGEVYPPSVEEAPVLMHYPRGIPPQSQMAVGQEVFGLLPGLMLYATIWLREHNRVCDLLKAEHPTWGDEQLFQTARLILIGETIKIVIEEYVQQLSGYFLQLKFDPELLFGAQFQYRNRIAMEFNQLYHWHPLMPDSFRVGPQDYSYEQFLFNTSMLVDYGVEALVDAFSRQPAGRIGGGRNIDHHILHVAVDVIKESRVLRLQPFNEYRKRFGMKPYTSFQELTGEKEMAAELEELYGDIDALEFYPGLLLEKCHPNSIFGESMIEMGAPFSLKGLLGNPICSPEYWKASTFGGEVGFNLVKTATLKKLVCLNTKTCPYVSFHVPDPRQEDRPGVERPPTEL
Source text: Colorimetric enzyme immunoassay (EIA) kits were done to screen for the isozyme-specific inhibition.

## CS(=O)(=O)n1cc(/C=N/NC(=S)Nc2ccccc2)c2ccccc21 [Compound 4c, (E)-2{[1-(methylsulfonyl)-1H-indol-3yl]methylene}-N-phenylhydrazinecarbothioamide]
other
  melting point: 220 to 222 °C
DPPH free radical assay
  DPPH test results (µM trolox equivalent/ 1mg sample ± SD): 263.29 ± 12.30 µM trolox equivalent/ 1mg sample
  DPPH anti-oxidant activity: about 263.29 µM Trolox equivalent/mg
COX-2
  S.I (IC50 COX-1/IC50 COX-2): 3.12
  SI: 3.116
5-LOX enzyme
  IC50: 4.03 ± 0.21 µM
5-LOX enzyme; conc 0.1 (μM)
  5-LOX %inh: 12.1%
5-LOX enzyme; conc 1 (μM)
  5-LOX %inh: 37.1%
5-LOX enzyme; conc 10 (μM)
  5-LOX %inh: 57.1%
5-LOX enzyme; conc 100 (μM)
  5-LOX %inh: 83.8%
5-LOX enzyme; lab report
  IC50: 4.03 ± 0.21 µM
Ovine COX-1; IC50 COX-1
  IC50: 5.01 ± 0.14 µM
Ovine COX-1; conc 0.1 (μM)
  COX1 %inh: 11%
Ovine COX-1; conc 1 (μM)
  COX1 %inh: 24.7%
Ovine COX-1; conc 10 (μM)
  COX1 %inh: 60.6%
Ovine COX-1; conc 100 (μM)
  COX1 %inh: 83.5%

## CS(=O)(=O)n1cc(/C=N/N=C2\SC(=O)CN2c2ccccc2)c2ccccc21 [Compound 5c]
other
  melting point: 260 to 262 °C
DPPH free radical assay
  DPPH test results (µM trolox equivalent/ 1mg sample ± SD): 707.52 ± 49.91 µM trolox equivalent/ 1mg sample
  DPPH anti-oxidant activity: 707.52 µM Trolox equivalent/mg and 707.5 µM Trolox equivalent/mg
COX-2
  S.I (IC50 COX-1/IC50 COX-2): 3.63
  SI: 3.628
5-LOX enzyme
  IC50: 79.4 ± 4.2 µM
5-LOX enzyme; conc 0.1 (μM)
  5-LOX %inh: 2.32%
5-LOX enzyme; conc 1 (μM)
  5-LOX %inh: 5.84%
5-LOX enzyme; conc 10 (μM)
  5-LOX %inh: 13%
5-LOX enzyme; conc 100 (μM)
  5-LOX %inh: 66.7%
Ovine COX-1; conc 0.1 (μM)
  COX1 %inh: 4.55%
Ovine COX-1; conc 1 (μM)
  COX1 %inh: 10.5%
Ovine COX-1; conc 10 (μM)
  COX1 %inh: 27.9%
Ovine COX-1; conc 100 (μM)
  COX1 %inh: 72.1%
Ovine COX-1; read-out: IC50 COX-1
  IC50: 29.2 ± 0.83 µM

## COc1ccc(N2CC(=O)S/C2=N\N=C\c2cn(S(C)(=O)=O)c3ccccc23)cc1 [Compound 5e]
other
  melting point: 273 to 275 °C
DPPH free radical assay
  DPPH test results (µM trolox equivalent/ 1mg sample ± SD): 13.22 ± 1.89 µM trolox equivalent/ 1mg sample
COX-2
  S.I (IC50 COX-1/IC50 COX-2): 9.72 and 9.73
  SI: 9.726
5-LOX enzyme
  IC50: 6.65 ± 0.35 µM
5-LOX enzyme; conc 0.1 (μM)
  5-LOX %inh: 11.6%
5-LOX enzyme; conc 1 (μM)
  5-LOX %inh: 24.1%
5-LOX enzyme; conc 10 (μM)
  5-LOX %inh: 53%
5-LOX enzyme; conc 100 (μM)
  5-LOX %inh: 80.8%
5-LOX enzyme; lab report
  IC50: 6.65 ± 0.35 µM
Ovine COX-1; conc 0.1 (μM)
  COX1 %inh: 3.76%
Ovine COX-1; conc 1 (μM)
  COX1 %inh: 13.1%
Ovine COX-1; conc 10 (μM)
  COX1 %inh: 20%
Ovine COX-1; conc 100 (μM)
  COX1 %inh: 68.5%
Ovine COX-1; read-out: IC50 COX-1
  IC50: 47.5 ± 1.35 µM

## CS(=O)(=O)n1cc(/C=N/NC(N)=O)c2ccccc21 [Compound 3a, (E)-2{[1-(methylsulfonyl)-1H-indol-3yl]methylene}hydrazinecarboxamide]
other
  melting point: 238 to 240 °C
DPPH free radical assay
  DPPH test results (µM trolox equivalent/ 1mg sample ± SD): 5.91 ± 1.87 µM trolox equivalent/ 1mg sample
COX-2
  S.I (IC50 COX-1/IC50 COX-2): 0.78
  SI: 0.779
5-LOX enzyme
  IC50: 48.8 ± 2.58 µM
5-LOX enzyme; conc 0.1 (μM)
  5-LOX %inh: 2.63%
5-LOX enzyme; conc 1 (μM)
  5-LOX %inh: 5.83%
5-LOX enzyme; conc 10 (μM)
  5-LOX %inh: 18.6%
5-LOX enzyme; conc 100 (μM)
  5-LOX %inh: 70.3%
Ovine COX-1; IC50 COX-1
  IC50: 21.1 ± 0.6 µM
Ovine COX-1; conc 0.1 (μM)
  COX1 %inh: 4.87%
Ovine COX-1; conc 1 (μM)
  COX1 %inh: 12.4%
Ovine COX-1; conc 10 (μM)
  COX1 %inh: 37.8%
Ovine COX-1; conc 100 (μM)
  COX1 %inh: 71%

## CS(=O)(=O)n1cc(/C=N/NC(N)=S)c2ccccc21 [Compound 4a, (E)-2{[1-(methylsulfonyl)-1H-indol-3yl]methylene}-hydrazine-1-carbothioamide]
other
  melting point: 178 to 180 °C
DPPH free radical assay
  DPPH test results (µM trolox equivalent/ 1mg sample ± SD): 24.55 ± 1.61 µM trolox equivalent/ 1mg sample
COX-2
  S.I (IC50 COX-1/IC50 COX-2): 2.80
  SI: 2.799
5-LOX enzyme
  IC50: 2.31 ± 0.12 µM
5-LOX enzyme; conc 0.1 (μM)
  5-LOX %inh: 11.4%
5-LOX enzyme; conc 1 (μM)
  5-LOX %inh: 43.6%
5-LOX enzyme; conc 10 (μM)
  5-LOX %inh: 69%
5-LOX enzyme; conc 100 (μM)
  5-LOX %inh: 90.3%
5-LOX enzyme; lab report
  IC50: 2.31 ± 0.12 µM
Ovine COX-1; IC50 COX-1
  IC50: 11.3 ± 0.32 µM
Ovine COX-1; conc 0.1 (μM)
  COX1 %inh: 7.54%
Ovine COX-1; conc 1 (μM)
  COX1 %inh: 18.6%
Ovine COX-1; conc 10 (μM)
  COX1 %inh: 44%
Ovine COX-1; conc 100 (μM)
  COX1 %inh: 77.6%

## CC(c1cc2ccccc2s1)N(O)C(N)=O (centres unmarked) [Zileuton, reference compound]
5-LOX enzyme; conc 10 (μM)
  5-LOX %inh: 77.1%
5-LOX enzyme; conc 100 (μM)
  5-LOX %inh: 92.8%
